A short description of data set [1]: Solubility remark on the isolated sodium salt. It counts as physicochemical. The following applies: sodium salt form, remark in the synthesis. How it is done:
1.2 ml of water and 30.5 mg of lithium hydroxide (5 equivalents) are added to a solution of 118 mg of the compound obtained in the preceding Stage 1 in 1.5 ml of methanol. The reaction medium is stirred at 50° C. for 2 hours and then concentrated under reduced pressure. The residue obtained is taken up in ether and the insoluble material is removed. The ethereal solution, after several treatments with acid and base, results in the formation of a precipitate, which is isolated.

For data set [2], the target named is MMP-12 (Homo sapiens, UniProt P39900). Put plainly: In vitro inhibition of proteolysis of fluorogenic peptide substrate FP-1 by MMP-12. It counts as biochemical. Particulars: substrate FP-1 10 μM, 20 minutes at ambient temperature, compounds tested 0.3 to 30 μM. How it is done:
(§1) The inhibitory activity of the compounds of formula (I) with regard to metalloproteinase-12 is evaluated by testing the ability of the compounds of the invention to inhibit the proteolysis of a peptide substrate by MMP-12.
(§2) The inhibitory activity of a compound of formula (I) is expressed as IC50 value, which represents the concentration of inhibitor at which a degree of inhibition of the metalloproteinase of 50% is observed.
(§3) The reaction begins with the sequential addition of 41 μl of substrate FP-1 (final concentration of 10 μM) to a buffer solution of 50 mM of Tris-HCl and 10 mM of CaCl2, which comprises 5 mM of hydroxamic acid and 5 μl of the enzyme diluted in a 0.005% Brij-35 buffer solution. The microplates are incubated for 20 minutes at ambient temperature. The compounds of the invention are tested at concentrations varying from 0.3 to 30 μM.
(§4) The measurement of the amount of proteolysis of the peptide substrate is monitored by a measurement of absorbance at 405 nm using a microplate spectrophotometer, at ambient temperature. The IC50 values are calculated from curves in which the percentage of the catalytic activity relative to the control is represented on the […] and the concentration of inhibitor is represented on the Y axis.

For data set [3], the target named is MMP-13 (Homo sapiens, UniProt P45452). Put plainly: MMP-12 test adapted to MMP-13. It is filed as biochemical. How it is done:
as §1, §2, §3, §4
The test described above for the inhibition of MMP-12 is adapted and used to determine the ability of the compounds of formula (I) to inhibit the metalloproteinases MMP-1, MMP-2, MMP-3, MMP-7, MMP-9, MMP-13 and MMP-14. […] More specifically, the compounds of the present invention generally show a selectivity with a factor of greater than 50 with respect to the metalloproteinases mentioned above, except towards MMP-13. Thus, the compounds of the present invention also show an inhibitory activity with regard to MMP-13, making it possible to also use the pharmaceutical compositions comprising one or more compounds of the invention in the treatment of pathologies related to activity of MMP-13. Mention may be made, among these pathologies, by way of indication and without implied limitation, of cancer, osetoporosis, osteoarthritis, arthritis, rheumatoid arthritis, atherosclerosis, multiple sclerosis, cardiac insufficiency, asthma and chronic obstructive pulmonary disease.

Structures can show the parent of a compound that is named as a salt.

For orientation: IC50 means the concentration that inhibits the measured activity by half. A higher IC50 goes with weaker potency.

Sequence of MMP-12 (P39900 106-470): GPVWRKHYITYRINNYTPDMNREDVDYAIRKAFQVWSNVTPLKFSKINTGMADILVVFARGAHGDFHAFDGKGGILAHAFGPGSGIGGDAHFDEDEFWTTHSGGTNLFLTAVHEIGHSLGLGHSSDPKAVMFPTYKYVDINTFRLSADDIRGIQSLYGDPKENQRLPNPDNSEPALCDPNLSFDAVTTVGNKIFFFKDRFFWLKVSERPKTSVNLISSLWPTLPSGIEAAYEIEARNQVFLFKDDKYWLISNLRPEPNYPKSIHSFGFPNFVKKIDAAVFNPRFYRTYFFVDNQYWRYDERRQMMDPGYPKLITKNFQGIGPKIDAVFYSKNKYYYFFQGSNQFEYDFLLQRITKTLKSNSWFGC

Take `O=C(O)Cc1ccc(-c2ccc(-c3csc(C(=O)NCCN4CCOCC4)c3)cc2)cc1.[Na+]` [Example 146, {4′-[5-(2-Morpholin-4-ylethylcarbamoyl)thiophen-3-yl]biphenyl-4-yl}-acetic acid, sodium salt]: the solubility entry in data set [1] is reported as “very low solubility”.

Take `O=C(O)CC1CCC(CNC(=O)c2cc(-c3ccc(OC(F)(F)F)cc3)cs2)CC1` (stereo not shown) [Example 131, [4-({[4-(4-Trifluoromethoxyphenyl)thien-2-yl]carboxamido}methyl)-cyclohexyl]acetic acid]: the IC50 came out at 0.425 µM in data set [2] and 3.3 µM in data set [3].

Regarding `Cn1ccc(-c2ccc(-c3csc(C(=O)NCCN4CCOCC4)c3)cc2)n1` [Example 22, 4-[4-(1-Methyl-1H-pyrazol-3-yl)phenyl]-N-(2-morpholin-4-ylethyl)thiophene-2-carboxamide], the IC50 in data set [2] turned out to be 0.915 µM; in data set [3], 11.6 µM.

As to `O=C(O)Cc1cccc(CNC(=O)c2cc(-c3ccc(OC(F)(F)F)cc3)cs2)c1` [Example 41, 2-[3-({[4-(4-Trifluoromethoxyphenyl)thien-2-yl]carboxamido}-methyl)phenyl]acetic acid], the IC50 stood at 0.883 µM in data set [2] and 5.17 µM in data set [3].

“3-[4-({[4-(4-Trifluoromethoxyphenyl)thien-2-yl]carboxamido}-methyl)phenyl]propanoic acid [Example 63]”: the IC50 in data set [2] is 0.49 µM; in data set [3], 3.8 µM.

Regarding `CC(C)[C@H](NC(=O)c1cc(-c2ccc(OC(F)(F)F)cc2)cs1)C(=O)O` [Example 150, (2S)-2-{[4-(4-Trifluoromethoxyphenyl)thien-2-yl]carboxamido}-3-methylbutanoic acid], the IC50 in data set [2] was determined as 0.78 µM; in data set [3], 10.1 µM.

“2-(4-{[(4-{4-[4-(2-Oxopropyl)-3-hydroxyphenyl]phenyl}thien-2-yl)carboxamido]methyl}phenyl)acetic acid [Example 119]”: the IC50 in data set [2] worked out at 0.13 µM; in data set [3] it was 0.78 µM.

As to `O=C(NC[C@H]1CC[C@H](C(=O)O)CC1)c1cc(-c2ccc(OC(F)(F)F)cc2)cs1` [Example 99, trans-4-({[4-(4-Trifluoromethoxyphenyl)thien-2-yl]carboxamido}-methyl)cyclohexanecarboxylic acid, Sodium Salt], the values for the IC50 in data set [2] and in data set [3] were 0.45 µM and 5 µM, respectively.

Consider `CC(=O)c1ccc(-c2ccc(-c3csc(C(=O)NCc4ccc(C(=O)O)cn4)c3)cc2)cc1` [Example 135, 6({[4-(4′-Acetyl-4-biphenyl)thien-2-yl]carboxamido}methyl)-nicotinic acid], for which the IC50 in data set [2] is 0.042 µM; in data set [3], 0.08 µM.

In the case of `O=C(O)CCc1ccc(NC(=O)c2cc(-c3ccc(OC(F)(F)F)cc3)cs2)nc1` [Example 27], the results for the IC50 in data set [2] and in data set [3] were 0.845 µM and 6.1 µM, respectively.

With `O=C(NCCN1CCOCC1)c1cc(-c2ccc(-c3ccncc3)cc2)cs1` [Example 9, 4-[4-(Pyridin-4-yl)phenyl]-N-(2-morpholin-4-ylethyl)thiophene-2-carboxamide], the IC50 in data set [2] was determined as 0.105 µM; in data set [3] it was 1.5 µM.

Take `O=C(NCCN1CCOCC1)c1cc(-c2ccc(-c3cccc(CO)c3)cc2)cs1` [Example 101, 4-{4-[3-(Hydroxymethyl)phenyl]phenyl}-N-(2-morpholin-4-ylethyl)-thiophene-2-carboxamide]: the IC50 in data set [2] came to 0.99 µM; in data set [3] it was 3.7 µM.

On to `O=C(NCCN1CCOCC1)c1cc(-c2ccc(-c3ccc(F)cc3)cc2)cs1` [Example 73, 4-[4-(4-Fluorophenyl)phenyl]-N-(2-morpholin-4-ylethyl)thiophene-2-carboxamide], for which the results for the IC50 in data set [2] and in data set [3] were 0.355 µM and 0.4 µM, respectively.

Turning to `O=C(O)c1ccc(CNC(=O)c2cc(-c3ccc(OC(F)(F)F)cc3)cs2)nc1` [Example 45, 6-({[4-(4-Trifluoromethoxyphenyl)thien-2-yl]carboxamido}-methyl)nicotinic acid], the half-maximal inhibitory concentration (IC50) in data set [2] turned out to be 0.92 µM; in data set [3], 2.85 µM.

For the compound `CC(=O)c1ccc(-c2ccc(-c3csc(C(=O)NCCN4CCOCC4)c3)cc2)cc1` [Example 72, 4-[4-(4-Acetylphenyl)phenyl]-N-(2-morpholin-4-ylethyl)thiophene-2-carboxamide], the IC50 was determined as 0.057 µM in data set [2] and 0.13 µM in data set [3].

For `O=C(NCCN1CCOCC1)c1cc(-c2ccc(N3CCCC3)cc2)cs1` [Example 14, 4-[4-(Pyrrolidin-1-yl)phenyl]-N-(2-morpholin-4-ylethyl)thiophene-2-carboxamide], the values for the IC50 in data set [2] and in data set [3] were 0.86 µM and 2.08 µM, respectively.

For the compound `N#CCc1ccc(-c2ccc(-c3csc(C(=O)NCc4ccc(CC(=O)O)cc4)c3)cc2)cc1` [Example 109, 2-[4-({[4-(4′-Cyanomethyl-4-biphenyl)thien-2-yl]carboxamido}-methyl)phenyl]acetic acid], the half-inhibitory concentration (IC50) in data set [2] came to 0.165 µM; in data set [3], 0.4 µM.

For the compound `O=C(NCc1ccc(O)c(C(=O)O)c1)c1cc(-c2ccc(OC(F)(F)F)cc2)cs1` [Example 133, 2-Hydroxy-({[4-(4-trifluoromethoxyphenyl)thien-2-yl]-carboxamido}methyl)benzoic acid], the IC50 is 0.95 µM in data set [2] and 2.65 µM in data set [3].

Regarding `O=C(O)c1ccc(CNC(=O)c2cc(-c3ccc(OC(F)(F)F)cc3)cs2)cc1` [Example 47, 4-({[4-(4-Trifluoromethoxyphenyl)thien-2-yl]carboxamido}-methyl)benzoic acid], the IC50 in data set [2] was found to be 0.436 µM; in data set [3], 3.59 µM.
